Laboratory results reported in article PMC12051030, “Identification of inhibitors of the Salmonella FraB deglycase, a drug target” (FEBS Open Bio, 2025).

Tests used:
[1] = system: dCTP pyrophosphatase 1; set-up: method as in PMID 28145708; conditions: bioassay records in PubChem; cited from earlier work
[2] = system: Salmonella tolC mutant; test: Growth assay, Salmonella tolC mutant in wild‐type or fra island mutant background; type: cell-based; conditions: early finding; could not be replicated after multiple attempts with stocks from different suppliers (data not shown)
Source text: We sought to examine the possibility that some of the hits in the biochemical HTS were not picked up in the cell‐based assays due to efficient efflux mechanisms in Salmonella. Because TolC is an outer membrane protein channel that is essential for the ability of seven of the 10 inner membrane drug‐efflux transporters to expel structurally diverse molecules, we generated a Salmonella tolC mutant and tested the 121 compounds that we purchased (Sabag‐Daigle, A. & Ahmer, B. M. M., unpublished results). The tests were conducted in parallel using the tolC mutant in a wild‐type or fra island mutant background; the latter lacks the entire fra locus and is incapable of catabolizing F‐Asn and forming 6‐P‐F‐Asp. Thus, any inhibitor specific for FraB (and which was being effluxed in the wild‐type) will inhibit the tolC mutant in a wild‐type but not the fra island mutant background. A caveat is that efflux of compounds may also be achieved via TolC‐independent drug‐efflux pumps.

[3] = system: deubiquitinase USP30; set-up: method as in PMID 28145708; conditions: bioassay records in PubChem; cited from earlier work
[4] = system: deubiquitinase USP28; set-up: method as in PMID 28145708; conditions: bioassay records in PubChem; cited from earlier work
[5] = system: deubiquitinase USP17; set-up: method as in PMID 28145708; conditions: bioassay records in PubChem; cited from earlier work

Fc1ccc(-c2nn3c(-c4ccccn4)nnc3s2)cc1 [3469:N17, 6‐(4‐fluorophenyl)‐3‐pyridin‐2‐yl‐[1,2,4]triazolo[3,4‐b][1,3,4]thiadiazole]
inhibition of dCTP pyrophosphatase 1 [1]: reported to inhibit | inhibition of growth of Salmonella tolC, fra‐dependent [2]: initially shown to inhibit the growth of Salmonella tolC in a fra‐dependent manner

c1ccc(-c2nnc3sc(C4COc5ccccc5O4)nn23)nc1 (stereo not shown) [3469:F02, 6‐(2,3‐dihydro‐1,4‐benzodioxin‐3‐yl)‐3‐pyridin‐2‐yl‐[1,2,4]triazolo[3,4‐b][1,3,4]thiadiazole]
inhibition of growth of Salmonella tolC, fra‐dependent [2]: initially shown to inhibit the growth of Salmonella tolC in a fra‐dependent manner

CC(C)Cc1cc(-c2nn3c(-c4ccccc4Cl)nnc3s2)n[nH]1 [3470:A09, 3‐(2‐chlorophenyl)‐6‐[5‐(2‐methylpropyl)‐1H‐pyrazol‐3‐yl]‐[1,2,4]triazolo[3,4‐b][1,3,4]thiadiazole]
inhibition of USP30 [3]: found to inhibit | inhibition of USP28 [4]: found to inhibit | inhibition of growth of Salmonella tolC, fra‐dependent [2]: initially shown to inhibit the growth of Salmonella tolC in a fra‐dependent manner | inhibition of USP17 [5]: found to inhibit
